# Test results from patent US20040137436A1, “Method for measuring drug resistance” (priority 2000, published 2004).
# Like-named read-outs stand apart in the source and are kept apart here.
# System: HIV-1
# Assay type: cell-based
# Conditions: for Geometric Mean Phenotype: fold change in IC50 vs wild type; for Average Phenotype (log): log fold resistance
# [1] = RT codon 41 ANY, 184 ANY, 215 ANY
# [2] = RT codon 41 WT, 184 V/I, 215 F/Y
# [3] = RT codon 41 WT, 184 V/I, 215 WT
# [4] = RT codon 41 WT, 184 WT, 215 F/Y
structure (smiles),measurement,setting,value
"Cc1cn([C@H]2C[C@H](N=[N+]=[N-])[C@@H](CO)O2)c(=O)[nH]c1=O [AZT, zidovudine]",effect of inclusion of the 184V mutation on magnitude of AZT resistance,"184V together with AZT resistance mutations, each cluster (FIG. 7)",substantial reduction
same,Geometric Mean Phenotype,[1],3.9 fold
same,Geometric Mean Phenotype,"RT codon 41 L, 184 WT, 215 F/Y",27.7 fold
same,Geometric Mean Phenotype,"RT codon 41 L, 184 WT, 215 WT",1.7 fold
same,Geometric Mean Phenotype,[2],6.2 fold
same,Geometric Mean Phenotype,[3],1.3 fold
same,Geometric Mean Phenotype,[4],13.4 fold
same,Geometric Mean Phenotype,"RT codon 41 WT, 184 WT, 215 WT",1.3 fold
same,"mean fold resistance, increase",genetic clusters with multiple mutations conferring AZT resistance (FIG. 7),~100 fold
same,Average Phenotype (log),[1],0.59
same,Average Phenotype (log),"RT codon 41 L, 184 WT, 215 F/Y",1.44
same,Average Phenotype (log),"RT codon 41 L, 184 WT, 215 WT",0.24
same,Average Phenotype (log),[2],0.79
same,Average Phenotype (log),[3],0.10
same,Average Phenotype (log),[4],1.13
same,Average Phenotype (log),"RT codon 41 WT, 184 WT, 215 WT",0.12
same,susceptibility profile of genetic cluster,virus harbouring the 184V mutation (FIG. 7),slightly reduced level of susceptibility
